How the values were obtained:
HT29 cells = assay: Xenograft mouse model (Test Example 5), tumor volume and body weight; type: in vivo; details: nude mice, ATRA 10 mg/kg oral daily for 21 days
Experimental: As an in vivo test, the therapeutic agent for cancer according to the embodiment was administered to a mouse, and the antitumor effect was verified based on a change in tumor size (volume). Xenograft mouse model was prepared as follows. Female nude mice (BALB/c-nu) were purchased from Charles River Laboratories Japan (Yokohama, Japan) and raised in a specific pathogen-free environment. The above-described HT29 cells cultured were collected with trypsin, and suspended in a mixed solution of a culture medium and a Corning Matrigel basement membrane matrix (Corning, NY, USA) so as to reach 1×10^7 cells/ml. Into a left abdominal region of each mouse was subcutaneously implanted 0.1 mL of cell suspension. […] Encorafenib was orally administered at a dose of 10 mg/kg daily, and ATRA was orally administered at a dose of 10 mg/kg daily for 21 days. Feeding needles for mice were used for oral administration. Cetuximab was intraperitoneally administered twice a week at a dose of 20 mg/kg. Each solvent was used as the control. The tumor size and the body weight were measured every three days after the start of the therapy, and the volume was estimated using a calculation formula (tumor volume (mm^3)=½× major axis (mm)×[…]). […]

RKO cell line = assay: Annexin V-PI apoptosis assay; type: cell-based; details: TRE 10 μM, ENC 100 nM, BIN 100 nM, 72 hours, TRE vs DMSO
Experimental: (§1) Thereafter, the cells were collected, washed with PBS, and stained with Annexin V and PI using Annexin V-FITC Apoptosis Detection Kit (Nakalai Tesque). Apoptotic cells were detected using CytoFLEX LX. A proportion of cells positive for Annexin V was calculated as a proportion of apoptotic cells. The above was performed three times as an independent experiment. Student's test was used for a significant difference test.

HT29 cell line = assay: Annexin V-PI apoptosis assay; type: cell-based; details: TRE 10 μM, ENC 10 nM, BIN 10 nM, 72 hours, TRE vs DMSO
Experimental: as §1

`CC1=C(/C=C/C(C)=C/C=C/C(C)=C/C(=O)O)C(C)(C)CCC1` [ATRA, all-trans retinoic acid] was tested. Which “side effects (body weight)” value (HT29 cells) did it give?
Its value is “does not cause any significant side effects”.

What about the “tumor volume (tumor size) change” value (HT29 cells; encorafenib 10 mg/kg oral daily, cetuximab 20 mg/kg i.p. twice a week) of the same compound?
The value was “increased with day”.

What about the “apoptotic cell proportion (Annexin V positive)” value (RKO cell line) of the same compound?
Its value is “no significant change”.

And the “apoptotic cell proportion (Annexin V positive)” value (HT29 cell line)?
The value was “no significant change”.

— patent US20250108051A1, “THERAPEUTIC AGENT FOR CANCER” (TOHOKU UNIVERSITY, priority 2022, published 2025)
